Laboratory results from article PMC12042115 (mLife, 2025).
Read-outs that look alike come from different tables or passages of the source.

System: wild‐type BCG cells
Type: cell-based, M. bovis BCG
Conditions: for Mean Ratio: GDI5755_2d vs DMSO_2d; for Mean Ratio / Mean Ratio (GDI5755_2d vs DMSO_2d): up-regulated; for Mean_Ratio (GDI5755_3d vs DMSO_3d): down-regulated, 3 d; for Mean Ratio (GDI5755_2d vs DMSO_2d): 2d

## O=C(Oc1ccc(Cl)cc1)c1ccc(N2CCOCC2)c([N+](=O)[O-])c1 [GDI‐5755]
Protein A1KKK9 Transcriptional regulator MraZ
  Mean Ratio: 1.25
Protein A1KKR8, BCG_2242 (Rv2225), 3-methyl-2-oxobutanoate hydroxymethyltransferase
  Mean_Ratio (GDI5755_3d vs DMSO_3d): 0.748
Protein A1KLF3, BCG_2477c (Rv2457c), ATP-dependent Clp protease ATP-binding subunit ClpX
  Mean_Ratio (GDI5755_3d vs DMSO_3d): 0.743
Protein A1KLT2, BCG_2607c (Rv2584c), Adenine phosphoribosyltransferase
  Mean_Ratio (GDI5755_3d vs DMSO_3d): 0.7
Protein A1KMA6, BCG_2781c (Rv2764c), Thymidylate synthase
  Mean_Ratio (GDI5755_3d vs DMSO_3d): 0.7
Protein A1KNI8 UPF0182 protein BCG_3215c
  Mean Ratio (GDI5755_2d vs DMSO_2d): 1.34
Protein A1KNQ0 Adenosylhomocysteinase
  Mean Ratio: 1.26
Protein A1KQ47, BCG_3775c (Rv3715c), Recombination protein RecR
  Mean_Ratio (GDI5755_3d vs DMSO_3d): 0.7
Protein BCG_0095 A1KEN2 UPF0182 protein
  Mean Ratio (GDI5755_2d vs DMSO_2d): 1.41
Protein BCG_0108c A0A0H3M9Q4 Probable oxidoreductase
  Mean Ratio (GDI5755_2d vs DMSO_2d): 1.77
Protein BCG_0130 A0A0H3M0N8 Possible oxidoreductase
  Mean Ratio (GDI5755_2d vs DMSO_2d): 1.72
Protein BCG_0132 A0A0H3M2I5 Possible fatty-acid-CoA ligase fadD10
  Mean Ratio (GDI5755_2d vs DMSO_2d): 1.49
Protein BCG_0178 A0A0H3M7D0 DNA glycosylase
  Mean Ratio (GDI5755_2d vs DMSO_2d): 1.58
Protein BCG_0181 A1KEW5 Putative S-adenosyl-L-methionine-dependent methyltransferase
  Mean Ratio (GDI5755_2d vs DMSO_2d): 2.17
Protein BCG_0182 A1KEW6 Putative S-adenosyl-L-methionine-dependent methyltransferase
  Mean Ratio (GDI5755_2d vs DMSO_2d): 2.71
Protein BCG_0228 A0A0H3MA02 Probable conserved integral membrane protein
  Mean Ratio (GDI5755_2d vs DMSO_2d): 1.46
Protein BCG_0248 A1KF31 Phosphoenolpyruvate carboxykinase [GTP],pckG
  Mean Ratio (GDI5755_2d vs DMSO_2d): 1.87
Protein BCG_0282c A0A0H3M7K8 Probable acyl-CoA dehydrogenase fadE5
  Mean Ratio (GDI5755_2d vs DMSO_2d): 1.45
Protein BCG_0289c A0A0H3MA45 HSP20 family protein/ Heat stress induced ribosome-binding protein A,acr2
  Mean Ratio (GDI5755_2d vs DMSO_2d): 3.46
Protein BCG_0353 A0A0H3M1Y1 Transmembrane protein
  Mean Ratio (GDI5755_2d vs DMSO_2d): 1.84
Protein BCG_0380 A0A0H3MAC3 Isoniazid inductible gene protein iniB
  Mean Ratio (GDI5755_2d vs DMSO_2d): 1.73
Protein BCG_0389 A1KFH2 Chaperone protein DnaK
  Mean Ratio (GDI5755_2d vs DMSO_2d): 1.52
Protein BCG_0390 A1KFH3 Protein GrpE
  Mean Ratio (GDI5755_2d vs DMSO_2d): 1.53
Protein BCG_0391 A0A0H3M380 Chaperone protein DnaJ
  Mean Ratio (GDI5755_2d vs DMSO_2d): 1.51
Protein BCG_0422c A0A0H3M7W9 Chaperone protein ClpB
  Mean Ratio (GDI5755_2d vs DMSO_2d): 1.56
Protein BCG_0465c A0A0H3M812 Possible transmembrane protein
  Mean Ratio (GDI5755_2d vs DMSO_2d): 1.45
Protein BCG_0490c A0A0H3M1K6 Probable conserved membrane protein mmpS4
  Mean Ratio (GDI5755_2d vs DMSO_2d): 1.45
Protein BCG_0494c A0A0H3M296 DUF5078 domain-containing protein
  Mean Ratio (GDI5755_2d vs DMSO_2d): 1.52
Protein BCG_0507 A0A0H3M3L9 isocitrate lyase
  Mean Ratio (GDI5755_2d vs DMSO_2d): 1.56
Protein BCG_0517 A0A0H3M881 Possible conserved transmembrane protein
  Mean Ratio (GDI5755_2d vs DMSO_2d): 1.43
Protein BCG_0565 A0A0H3M3T9 Probable gaba permease gabP (4-amino butyrate transport carrier)
  Mean Ratio (GDI5755_2d vs DMSO_2d): 1.46
Protein BCG_0578c A0A0H3M3U8 1,4-dihydroxy-2-naphthoate octaprenyltransferase
  Mean Ratio (GDI5755_2d vs DMSO_2d): 1.66
Protein BCG_0605c A1KG37 2-heptyl-1-hydroxyquinolin-4(1H)-one methyltransferase
  Mean Ratio (GDI5755_2d vs DMSO_2d): 2.76
Protein BCG_0614 A0A0H3M8E5 DUF1918 domain-containing protein
  Mean Ratio (GDI5755_2d vs DMSO_2d): 1.43
Protein BCG_0623c A0A0H3M1W6 PE-PGRS family protein
  Mean Ratio (GDI5755_2d vs DMSO_2d): 1.87
Protein BCG_0725c A0A0H3MAX0 Probable conserved transmembrane transport protein mmpL5
  Mean Ratio (GDI5755_2d vs DMSO_2d): 1.69
Protein BCG_0727 A0A0H3M257 Transcriptional regulator
  Mean Ratio (GDI5755_2d vs DMSO_2d): 1.43
Protein BCG_0761 A0A0H3M268 Possible arylsulfatase atsA
  Mean Ratio (GDI5755_2d vs DMSO_2d): 1.61
Protein BCG_0776c A1KGK7 Putative S-adenosyl-L-methionine-dependent methyltransferase BCG_0776c
  Mean Ratio (GDI5755_2d vs DMSO_2d): 1.55
Protein BCG_0835 A0A0H3M322 Deacetylase
  Mean Ratio (GDI5755_2d vs DMSO_2d): 1.55
Protein BCG_0883 A1KGW3 Putative S-adenosyl-L-methionine-dependent methyltransferase BCG_0883
  Mean Ratio (GDI5755_2d vs DMSO_2d): 1.87
Protein BCG_0969 A0A0H3M4Q4 Possible glycine betaine transport integral membrane protein betP
  Mean Ratio (GDI5755_2d vs DMSO_2d): 1.64
Protein BCG_1053 A0A0H3M3P8 Uncharacterized protein
  Mean Ratio (GDI5755_2d vs DMSO_2d): 1.56
Protein BCG_1115 A0A0H3M9F1 Uncharacterized protein
  Mean Ratio (GDI5755_2d vs DMSO_2d): 1.90
Protein BCG_1130 A0A0H3M9G5 Probable conserved transmembrane protein
  Mean Ratio (GDI5755_2d vs DMSO_2d): 1.64
Protein BCG_1191 A0A0H3M5B0 2-methylcitrate dehydratase
  Mean Ratio (GDI5755_2d vs DMSO_2d): 1.57
Protein BCG_1249 A0A0H3M3D0 L-glutamate gamma-semialdehyde dehydrogenase
  Mean Ratio (GDI5755_2d vs DMSO_2d): 1.49
Protein BCG_1281 A0A0H3M3F3 Alternative RNA polymerase sigma factor sigE
  Mean Ratio (GDI5755_2d vs DMSO_2d): 1.41
Protein BCG_1309c A0A0H3M3H0 Possible membrane protein
  Mean Ratio (GDI5755_2d vs DMSO_2d): 1.44
Protein BCG_1334 A0A0H3M3I9 Lipoprotein lprC
  Mean Ratio (GDI5755_2d vs DMSO_2d): 1.55
Protein BCG_1404c A0A0H3M3N1 Conserved membrane protein
  Mean Ratio (GDI5755_2d vs DMSO_2d): 1.78
Protein BCG_1574c A0A0H3M689 Probable conserved transmembrane transport protein mmpL12
  Mean Ratio (GDI5755_2d vs DMSO_2d): 1.47
Protein BCG_1609 A0A0H3M480 Probable conserved transmembrane transport protein mmpL6
  Mean Ratio (GDI5755_2d vs DMSO_2d): 1.85
Protein BCG_1660c A0A0H3M5A2 Probable integral membrane cytochrome D ubiquinol oxidase (Subunit II) cydB
  Mean Ratio (GDI5755_2d vs DMSO_2d): 1.42
Protein BCG_1661c A0A0H3M4E4 Probable integral membrane cytochrome D ubiquinol oxidase (Subunit I) cydA
  Mean Ratio (GDI5755_2d vs DMSO_2d): 1.57
Protein BCG_1890c A0A0H3MB87 Type II NADH dehydrogenase Ndh/Rv1854c
  Mean Ratio (GDI5755_2d vs DMSO_2d): 1.53
Protein BCG_2010c A0A0H3M561 DUF1490 family protein
  Mean Ratio (GDI5755_2d vs DMSO_2d): 1.88
Protein BCG_2056c A0A0H3MBM9 Possible conserved transmembrane protein
  Mean Ratio (GDI5755_2d vs DMSO_2d): 1.52
Protein BCG_2072c A0A0H3M7M3 Probable transmembrane protein
  Mean Ratio (GDI5755_2d vs DMSO_2d): 2.05
Protein BCG_2419c A0A0H3M8K8 Probable conserved lipoprotein lppR
  Mean Ratio (GDI5755_2d vs DMSO_2d): 1.48
Protein BCG_2583 A0A0H3M7F6 Probable proline and glycine rich transmembrane protein
  Mean Ratio (GDI5755_2d vs DMSO_2d): 1.73
Protein BCG_2657 A0A0H3M963 Archease domain-containing protein
  Mean Ratio (GDI5755_2d vs DMSO_2d): 1.52
Protein BCG_2934c A0A0H3M896 Possible D-amino acid aminohydrolase
  Mean Ratio (GDI5755_2d vs DMSO_2d): 1.77
Protein BCG_2965 A0A0H3MDP7 Probable transposase for insertion sequence element IS1533
  Mean Ratio (GDI5755_2d vs DMSO_2d): 2.65
Protein BCG_3007c A0A0H3M7X4 DNA-binding protein HupB
  Mean Ratio (GDI5755_2d vs DMSO_2d): 1.45
Protein BCG_3038 A0A0H3MA42 Probable lipoprotein lpqA
  Mean Ratio (GDI5755_2d vs DMSO_2d): 1.97
